The results in this text go back to PMC5791048 (Journal of Natural Products, 2017).

The data set in a line: A549 cytotoxicity assay. The class given is cell-based. The conditions noted are these: human, A549 cells (human lung carcinoma).
What is called IC50 is the point on the concentration scale where inhibition reaches its midpoint. Read a high IC50 as lower potency. Take `C=C(C)[C@@H]1/C=C/[C@]23O[C@H]2[C@H](C[C@](C)(O)[C@@H](OC(C)=O)C2=CC(C=O)=C(C1)O2)OC3=O` [keikipukalide D (4), keikipukalide D]: the IC50 at 72 h is above 50 µg/mL.
In turn, `C=C(C)[C@@H]1CC(=O)[C@H]2[C@H](C1)[C@@H]1C(=O)O[C@@H]3C[C@]4(C)O[C@H]2C(=O)[C@@H]4[C@H]13` [ineleganolide (7), ineleganolide] gave a 50% inhibitory concentration (IC50) at 72 h above 50 µg/mL.
To `C=C(C)[C@@H]1/C=C/[C@]23O[C@H]2[C@H](C[C@@]2(C)O[C@@H]2C2=CC(C=O)=C(C1)O2)OC3=O` [keikipukalide A (1), keikipukalide A] belongs above 50 µg/mL.
`C=C(C)[C@@H]1CCC2=C[C@H](C[C@@]3(C)O[C@@H]3C3=CC(C=O)=C(C1)O3)OC2=O` [pukalide aldehyde (6), pukalide aldehyde] displayed an IC50 at 72 h above 50 µg/mL.
As to `C=C(C)[C@H]1CC2=C(C=O)C=C(O2)[C@H]2O[C@]2(C)C[C@@H]2OC(=O)/C(=C\[C@H]1OC(C)=O)[C@H]2OC(C)=O` [keikipukalide B (2), keikipukalide B], the half-maximal inhibitory concentration (IC50) at 72 h is above 50 µg/mL.
In turn, `C=C(C)[C@H]1CC2=C(C=O)C=C(O2)[C@H]2O[C@]2(C)C[C@H]2C=C(C(=O)O2)[C@@H](OC(C)=O)C1` [keikipukalide E (5), keikipukalide E] displayed an IC50 at 72 h above 50 µg/mL.
The same measure for `C=C(C)[C@@H]1C/C=C2\C(=O)O[C@@H](C[C@@]3(C)O[C@@H]3C3=CC(C=O)=C(C1)O3)[C@@H]2OC(C)=O` [keikipukalide C (3), keikipukalide C]: above 50 µg/mL.
